Calls of active or inactive are those of the source. The calls are words filed in the database; no cut-off is given here.
Legend:
[1] = organism: Mus musculus; details: ICR, 5 mg/kg
Description: (§1) In-vivo inhibition of DPP4 in ICR mouse at 5 mg/kg, ip administered as single dose using Gly-Pro-AMC as substrate after 24 hrs post dose by continuous fluorometric assay

[2] = test system: Mus musculus; experiment: In-vivo inhibition of DPP4 in B6.V-Lep'ob/Lep'ob (ob/ob) mouse at 3 mg/kg, po administered as single dose using Gly-Pro-AMC as substrate after 24 hrs post dose by continuous fluorometric assay; assay type: functional, organism-based
[3] = Half life in Sprague-Dawley rat at 1 mg/kg, iv by LC-MS/MS method; assay type: ADME, organism-based; details: in vivo
[4] = Clearance in Sprague-Dawley rat at 1 mg/kg, iv by LC-MS/MS method; assay type: ADME, organism-based; details: in vivo
[5] = AUC (0 to t) in Sprague-Dawley rat at 2 mg/kg, po by LC-MS/MS method; assay type: ADME, organism-based; details: in vivo
[6] = Volume of distribution at steady state in Sprague-Dawley rat at 1 mg/kg, iv by LC-MS/MS method; assay type: ADME, organism-based; details: in vivo, read-out: Vdss
[7] = Oral bioavailability in Sprague-Dawley rat at 2 mg/kg by LC-MS/MS method; assay type: ADME, organism-based; details: in vivo
[8] = Tmax in Sprague-Dawley rat at 2 mg/kg, po by LC-MS/MS method; assay type: ADME, organism-based; details: in vivo
[9] = AUC (0 to infinity) in Sprague-Dawley rat at 1 mg/kg, iv by LC-MS/MS method; assay type: ADME, organism-based; parameters: dose 1 mg/kg, route intravenous, time infinity; details: in vivo
[10] = AUC (0 to t) in Sprague-Dawley rat at 1 mg/kg, iv by LC-MS/MS method; assay type: ADME, organism-based; details: in vivo
[11] = Half life in Sprague-Dawley rat at 2 mg/kg, po by LC-MS/MS method; assay type: ADME, organism-based; details: in vivo
[12] = Mean residence time (0 to infinity) in Sprague-Dawley rat at 2 mg/kg, po by LC-MS/MS method; assay type: ADME, organism-based; details: in vivo
[13] = AUC (0 to infinity) in Sprague-Dawley rat at 2 mg/kg, po by LC-MS/MS method; assay type: ADME, organism-based; parameters: dose 2 mg/kg, route oral, time infinity; details: in vivo
[14] = Mean residence time (0 to infinity) in Sprague-Dawley rat at 1 mg/kg, iv by LC-MS/MS method; assay type: ADME, organism-based; details: in vivo
[15] = Cmax in Sprague-Dawley rat at 2 mg/kg, po by LC-MS/MS method; assay type: ADME, organism-based; parameters: dose 2 mg/kg, route oral; details: in vivo
[16] = organism: Mus musculus; experiment: animal or person; details: po, 24 h, read-out: INH
[17] = organism: Mus musculus; details: 1 to 10 mg/kg
[18] = organism: Mus musculus; experiment: animal or person; details: po, 24 h, read-out: INH; remark: listed apart in the source
[19] = test system: Mus musculus; experiment: Improvement in glucose tolerance in ICR mouse at 1 to 10 mg/kg, po administered as single dose 60 mins before glucose challenge and measured 30 to 60 mins post glucose challenge by OGTT method; assay type: functional, organism-based
[20] = organism: Mus musculus; experiment: animal or person; details: ICR, ip, 24 h, read-out: INH
Description: as §1

[21] = organism: Mus musculus; experiment: animal or person; details: po, 24 h, read-out: INH; remark: listed apart in the source

Structure (SMILES): CS(=O)(=O)n1cc2c(n1)CN([C@H]1CO[C@H](c3cc(F)ccc3F)[C@@H](N)C1)C2
- inhibition [1]: Active
- inhibition [2]: Active

Structure (SMILES): COc1cc2c3c(ccc2cc1S(C)(=O)=O)O[C@H](c1cc(F)c(F)cc1F)[C@@H](N)C3
- half-life [3]: 5.35 h
- clearance [4]: 0.667 mL/min/kg
- AUCt [5]: 26527.6 µg/L/h
- Vd [6]: 0.63 L/kg
- bioavailability [7]: 54.8%
- Tmax [8]: 4.67 h
- AUC [9]: 25460.37 µg/L/h
- AUCt [10]: 24208.7 µg/L/h
- half-life [11]: 6.83 h
- MRT inf [12]: 9.05 h
- AUC [13]: 26373.69 µg/L/h
- MRT inf [14]: 7.56 h
- Cmax [15]: 2320 ng/mL

Structure (SMILES): COc1cc2ccc3c(c2cc1OC)C[C@H](N)[C@@H](c1cc(F)c(F)cc1F)O3
- half-life [3]: 3.87 h
- inhibition in vivo at 3 mg/kg [16]: > 80%
- inhibition [17]: Dose-dependent effect
- clearance [4]: 5 mL/min/kg
- inhibition in vivo at 1 mg/kg [18]: > 80%
- AUCt [5]: 6052.89 µg/L/h
- Activity [19]: Dose-dependent effect
- inhibition in vivo at 5 mg/kg [20]: ≤ 80%
- Vd [6]: 1.66 L/kg
- bioavailability [7]: 89.2%
- Tmax [8]: 4.67 h
- inhibition in vivo at 10 mg/kg [21]: > 80%
- AUC [9]: 3415 µg/L/h
- AUCt [10]: 3380.54 µg/L/h
- half-life [11]: 3.05 h
- MRT inf [12]: 6.33 h
- AUC [13]: 6091.31 µg/L/h
- MRT inf [14]: 4.87 h
- Cmax [15]: 502 ng/mL
